Laboratory results: paper PMC5431875, “In situ click chemistry generation of cyclooxygenase-2 inhibitors” (Nature Communications, 2017)

Key:
[1] = target: T1, recombinant human COX-2 (Homo sapiens, UniProt P35354); experiment: COX inhibitor assay (Cayman 700100), COX-2
T1 sequence (P35354 18-604): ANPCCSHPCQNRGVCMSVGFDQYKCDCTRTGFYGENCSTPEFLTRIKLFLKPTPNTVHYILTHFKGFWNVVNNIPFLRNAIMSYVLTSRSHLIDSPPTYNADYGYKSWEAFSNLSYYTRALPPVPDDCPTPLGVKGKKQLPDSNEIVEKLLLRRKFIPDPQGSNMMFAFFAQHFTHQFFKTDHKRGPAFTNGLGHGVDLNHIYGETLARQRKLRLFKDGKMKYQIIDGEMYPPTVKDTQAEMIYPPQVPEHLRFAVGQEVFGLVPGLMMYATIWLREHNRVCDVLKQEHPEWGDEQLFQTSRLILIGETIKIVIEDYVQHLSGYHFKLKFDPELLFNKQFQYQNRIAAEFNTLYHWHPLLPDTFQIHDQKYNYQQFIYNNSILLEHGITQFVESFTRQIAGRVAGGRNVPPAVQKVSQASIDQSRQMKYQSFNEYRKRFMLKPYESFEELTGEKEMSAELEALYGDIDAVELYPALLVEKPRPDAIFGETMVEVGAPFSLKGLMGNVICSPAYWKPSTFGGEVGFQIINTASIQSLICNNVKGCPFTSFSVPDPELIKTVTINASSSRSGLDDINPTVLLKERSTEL
Protocol: (§1) Each compound was assayed in concentration range of 10^−9 M to 10^−3 M, in triplicate. PRISM5 software was used to calculate IC50 values.

[2] = target: T2, ovine COX-1 (Ovis aries, UniProt P05979); experiment: COX inhibitor assay (Cayman 700100), COX-1
T2 sequence (P05979 25-600): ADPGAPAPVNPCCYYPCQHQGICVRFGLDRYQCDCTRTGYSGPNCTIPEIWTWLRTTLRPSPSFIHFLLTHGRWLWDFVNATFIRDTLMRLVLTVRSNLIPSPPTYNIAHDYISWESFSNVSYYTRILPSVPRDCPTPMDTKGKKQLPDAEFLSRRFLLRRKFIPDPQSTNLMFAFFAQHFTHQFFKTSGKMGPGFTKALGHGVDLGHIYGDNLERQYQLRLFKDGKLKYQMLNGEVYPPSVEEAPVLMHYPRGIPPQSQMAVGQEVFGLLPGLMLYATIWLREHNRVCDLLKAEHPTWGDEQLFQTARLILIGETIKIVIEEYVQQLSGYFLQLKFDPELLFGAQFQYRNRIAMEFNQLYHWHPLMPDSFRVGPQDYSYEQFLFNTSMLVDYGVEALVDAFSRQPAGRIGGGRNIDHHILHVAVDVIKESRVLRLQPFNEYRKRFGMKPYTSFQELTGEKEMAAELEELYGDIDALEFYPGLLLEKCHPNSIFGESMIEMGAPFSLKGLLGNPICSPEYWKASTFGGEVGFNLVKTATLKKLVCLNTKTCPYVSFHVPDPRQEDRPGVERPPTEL
Protocol: as §1

[3] = Stability in human serum; assay type: in vitro ADME; conditions: 37 °C, up to 30 h
Protocol: Stock solutions of compounds 5, 14, 18 and 21 (10 mM) were prepared in DMSO for molecular biology. A Solution of each compound (10 mM) was added to freshly thaw human serum (from human male AB plasma, USA origin, sterile-filtered, Sigma– Aldrich) at 37 °C; the final concentration of the compound was 100 µM. The resulting solution was incubated at 37 °C and at various time intervals (0 to 30 h) 200 µL reaction mixture samples was taken and added to 200 µL of acetonitrile containing 0.1% trifluoroacetic acid in order to deproteinize the proteins. Into each sample mixture, 10 μL of an internal standard solution (2 mM solution in methanol) was added. Sample mixture was sonicated, vortexed and then centrifuged for 15 min. at 2150 × g. The clear supernatant was transferred into the fresh tube for LCMS analysis, with a similar method described for the in situ click LC-MS studies. […]

[4] = target: T3, pure human COX-2 protein (Homo sapiens, UniProt P35354); experiment: Isothermal titration calorimetry; assay type: binding; conditions: ITC
T3 sequence (P35354 18-604): T1 sequence (P35354 18-604)
Protocol: The thermodynamics of the precursor 5-azido-pyrazole (14) binding with pure human COX-2 protein studied with a high sensitivity ITC instrument (VP-ITC, MicroCal). All titrations were performed by following VP-ITC general procedure described in manual. Protein (20 µM) and ligand (200 µM) solution were prepared in PBS buffer, pH 7.4. Prior to each ITC run, all solutions were filtered using membrane filters (pore size 0.45 μm) and thoroughly stirred and degassed using Thermovac accessory for 20 min to remove any air bubbles at 25 °C. In a typical experiment, aliquots (6 µl) of ligand solution (prepared at 10 times the COX-2 protein concentration) were injected with a computer-controlled stirrer-syringe into a reaction cell containing COX-2 protein. Titrations were carried out with a stirring speed of 400 rpm and 240 s intervals between injections. All experiments were conducted at 25 °C. Control experiments, including titration of the ligand into buffer alone or COX-2 protein into buffer alone, were carried to determine the heat due to dilution and subtracting during the original experiment. Calorimetric data analysis was performed with ORIGIN software provided by MicroCal. All results, including the binding constant (K a), stoichiometry of binding (N), and thermodynamics of binding (ΔH and TΔS) were determined by fitting the experimental binding isotherms.

[5] = target: T4, COX-2 in HCA-7 cells (Homo sapiens, UniProt P35354); experiment: Cellular COX-2 inhibitory activity (PGE2 ELISA) in HCA-7 cells; assay type: cell-based; conditions: mean of three determinations, read-out: Cell COX-2 IC50
T4 construct: endogenous in cells; host or cells: HCA-7
T4 sequence (P35354 18-604): T1 sequence (P35354 18-604)
Protocol: Based on the in vitro COX-2 inhibitory data, seventeen compounds (Table 2) were selected and further evaluated for their cellular COX-2 inhibitory activity in COX-2 expressing colorectal cancer cell line HCA-7. […]
HCA-7 cells (colorectal cancer cell line, COX-2 expression is confirmed with immunoblotting). The HCA-7 cells were cultured in T75 flasks using DMEM/F12 (1:1) medium supplemented with 10% (v/v) fetal bovine […]
were washed three times for 5 min with 1 ml PBS. Cells were negatively tested for mycoplasma contamination either by the vendor or in house. […]
vehicle (solvent) at concentration range of 10−9 M to 10−3 M. After 30 min incubation the reaction was stopped on ice and supernatants were taken and COX-2 mediated production of PGE2 was immediately determined […]
concentration is quantified by following manufacturer assay procedure. All experiments were done three times and ±s.e.m. were calculated.
The PRISM5 software was used to calculate IC50 values.

[6] = Stability in rat serum; assay type: in vitro ADME; conditions: 37 °C, up to 30 h

Cc1cc(N=[N+]=[N-])n(-c2ccc(S(C)(=O)=O)cc2)n1 [Compound 14, 5-azido-1-(4-methanesulfonyl-phenyl)-3-methyl-1H-pyrazole]
IC50 [1]: 4.4 µM | COX-2 SI (selectivity index) ([1]; (COX-1 IC50)/(COX-2 IC50)): >22.7 | IC50 [2]: > 100 µM | Stability in human serum [3]: no significant degradation | Enthalpy change, ΔH ([4]; 298.15 K): -8.248 kcal/mol | Entropy change, TΔS ([4]; 298.15 K): 0.404 kcal/mol | Free energy change, ΔG ([4]; 298.15 K): -8.652 kcal/mol | Binding stoichiometry, N ([4]; PBS pH 7.4, 25 °C): 1.02 ± 0.0259 | IC50 [5]: 10 µM | Stability in rat serum [6]: no significant degradation | melting point: 131 to 133 °C
